# Results published in ChEMBL document CHEMBL3046339, “Insecticidal activity of Maytenus species (Celastraceae) nortriterpene quinone methides against codling moth, Cydia pomonella (L.) (Lepidoptera: tortricidae)” (2000).
# How the values were obtained:
# Type in all cases: functional
# [1] = test system: Cydia pomonella; assay: Insecticidal activity against Cydia pomonella (codling moth) assessed as mortality treated diet topically measured after 10 days of continuous exposure; conditions: topical, 240 h
# [2] = test system: Cydia pomonella; assay: Insecticidal activity against Cydia pomonella (codling moth) at 2 mg/kg assessed as growth regulation measured as number of head capsules of larvae after 10 days of continuous exposure Rvb = (1.5 +/- 0.2%)
# [3] = test system: Cydia pomonella; assay: Insecticidal activity against Cydia pomonella (codling moth) at 12 mg/kg assessed as growth regulation measured as number of head capsules of larvae after 5 days of continuous exposure (reference value: 0.2 +/- 0.2%)
# [4] = test system: Cydia pomonella; assay: Antifeedant activity against Cydia pomonella (codling moth) at 12 mg/kg diet topically measured after 10 days of continuous exposure (reference value: 6.7 +/- 6.7%)
# [5] = test system: Cydia pomonella; assay: Antifeedant activity against Cydia pomonella (codling moth) at 18 mg/kg diet topically measured after 10 days of continuous exposure (reference value: 6.7 +/- 6.7%)
# [6] = test system: Cydia pomonella; assay: Insecticidal activity against Cydia pomonella (codling moth) assessed as mortality at 6 mg/kg diet topically measured after 10 days of continuous exposure (reference value: 3.3 +/- 3.3%); conditions: topical, 240 h
# [7] = test system: Cydia pomonella; assay: Antifeedant activity against Cydia pomonella (codling moth) at 16 mg/kg diet topically measured after 10 days of continuous exposure (reference value: 6.7 +/- 6.7%)
# [8] = test system: Cydia pomonella; assay: Antifeedant activity against Cydia pomonella (codling moth) at 12 mg/kg diet topically measured after 5 days of continuous exposure (reference value: 6.7 +/- 6.7%)
# [9] = test system: Cydia pomonella; assay: Insecticidal activity against Cydia pomonella (codling moth) assessed as mortality at 4 mg/kg diet topically measured after 5 days of continuous exposure (reference value: 0%); conditions: topical, 120 h
# [10] = test system: Cydia pomonella; assay: Insecticidal activity against Cydia pomonella (codling moth) at 18 mg/kg assessed as growth regulation measured as number of head capsules of larvae after 5 days of continuous exposure (reference value: 0.2 +/- 0.2%)
# [11] = test system: Cydia pomonella; assay: Insecticidal activity against Cydia pomonella (codling moth) assessed as mortality at 12 mg/kg diet topically measured after 5 days of continuous exposure (reference value: 0%); conditions: topical, 120 h
# [12] = test system: Cydia pomonella; assay: Antifeedant activity against Cydia pomonella (codling moth) at 16 mg/kg diet topically measured after 5 days of continuous exposure (reference value: 6.7 +/- 6.7%)
# [13] = test system: Cydia pomonella; assay: Insecticidal activity against Cydia pomonella (codling moth) assessed as mortality diet topically measured after 5 days of continuous exposure; conditions: topical, 120 h
# [14] = test system: Cydia pomonella; assay: Antifeedant activity against Cydia pomonella (codling moth) at 4 mg/kg diet topically measured after 10 days of continuous exposure (reference value: 6.7 +/- 6.7%)
# [15] = test system: Cydia pomonella; assay: Insecticidal activity against Cydia pomonella (codling moth) assessed as mortality at 16 mg/kg diet topically measured after 5 days of continuous exposure (reference value: 0%); conditions: topical, 120 h
# [16] = test system: Cydia pomonella; assay: Antifeedant activity against Cydia pomonella (codling moth) at 8 mg/kg diet topically measured after 5 days of continuous exposure (reference value: 6.7 +/- 6.7%)
# [17] = test system: Cydia pomonella; assay: Insecticidal activity against Cydia pomonella (codling moth) assessed as mortality at 18 mg/kg diet topically measured after 5 days of continuous exposure (reference value: 0%); conditions: topical, 120 h
# [18] = test system: Cydia pomonella; assay: Insecticidal activity against Cydia pomonella (codling moth) at 6 mg/kg assessed as growth regulation measured as number of head capsules of larvae after 10 days of continuous exposure Rvb = (1.5 +/- 0.2%)
# [19] = test system: Cydia pomonella; assay: Antifeedant activity against Cydia pomonella (codling moth) at 1 mg/kg diet topically measured after 5 days of continuous exposure (reference value: 6.7 +/- 6.7%)
# [20] = test system: Cydia pomonella; assay: Insecticidal activity against Cydia pomonella (codling moth) assessed as mortality at 8 mg/kg diet topically measured after 10 days of continuous exposure (reference value: 3.3 +/- 3.3%); conditions: topical, 240 h
# [21] = test system: Cydia pomonella; assay: Insecticidal activity against Cydia pomonella (codling moth) at 20 mg/kg assessed as growth regulation measured as number of head capsules of larvae after 10 days of continuous exposure Rvb = (1.5 +/- 0.2%)
# [22] = test system: Cydia pomonella; assay: Insecticidal activity against Cydia pomonella (codling moth) assessed as mortality at 2 mg/kg diet topically measured after 5 days of continuous exposure (reference value: 0%); conditions: topical, 120 h
# [23] = test system: Cydia pomonella; assay: Antifeedant activity against Cydia pomonella (codling moth) at 20 mg/kg diet topically measured after 5 days of continuous exposure (reference value: 6.7 +/- 6.7%)
# [24] = test system: Cydia pomonella; assay: Antifeedant activity against Cydia pomonella (codling moth) at 8 mg/kg diet topically measured after 10 days of continuous exposure (reference value: 6.7 +/- 6.7%)
# [25] = test system: Cydia pomonella; assay: Insecticidal activity against Cydia pomonella (codling moth) at 4 mg/kg assessed as growth regulation measured as number of head capsules of larvae after 10 days of continuous exposure Rvb = (1.5 +/- 0.2%)
# [26] = test system: Cydia pomonella; assay: Insecticidal activity against Cydia pomonella (codling moth) at 1 mg/kg assessed as growth regulation measured as number of head capsules of larvae after 5 days of continuous exposure (reference value: 0.2 +/- 0.2%)
# [27] = test system: Cydia pomonella; assay: Antifeedant activity against Cydia pomonella (codling moth) at 6 mg/kg diet topically measured after 10 days of continuous exposure (reference value: 6.7 +/- 6.7%)
# [28] = test system: Cydia pomonella; assay: Insecticidal activity against Cydia pomonella (codling moth) assessed as mortality at 18 mg/kg diet topically measured after 10 days of continuous exposure (reference value: 3.3 +/- 3.3%); conditions: topical, 240 h
# [29] = test system: Cydia pomonella; assay: Antifeedant activity against Cydia pomonella (codling moth) at 2 mg/kg diet topically measured after 10 days of continuous exposure (reference value: 6.7 +/- 6.7%)
# [30] = test system: Cydia pomonella; assay: Antifeedant activity against Cydia pomonella (codling moth) at 20 mg/kg diet topically measured after 10 days of continuous exposure (reference value: 6.7 +/- 6.7%)
# [31] = test system: Cydia pomonella; assay: Insecticidal activity against Cydia pomonella (codling moth) at 2 mg/kg assessed as growth regulation measured as number of head capsules of larvae after 5 days of continuous exposure (reference value: 0.2 +/- 0.2%)
# [32] = test system: Cydia pomonella; assay: Antifeedant activity against Cydia pomonella (codling moth) at 2 mg/kg diet topically measured after 5 days of continuous exposure (reference value: 6.7 +/- 6.7%)
# [33] = test system: Cydia pomonella; assay: Insecticidal activity against Cydia pomonella (codling moth) at 16 mg/kg assessed as growth regulation measured as number of head capsules of larvae after 5 days of continuous exposure (reference value: 0.2 +/- 0.2%)
# [34] = test system: Cydia pomonella; assay: Insecticidal activity against Cydia pomonella (codling moth) at 4 mg/kg assessed as growth regulation measured as number of head capsules of larvae after 5 days of continuous exposure (reference value: 0.2 +/- 0.2%)
# [35] = test system: Cydia pomonella; assay: Insecticidal activity against Cydia pomonella (codling moth) at 8 mg/kg assessed as growth regulation measured as number of head capsules of larvae after 10 days of continuous exposure Rvb = (1.5 +/- 0.2%)
# [36] = test system: Cydia pomonella; assay: Insecticidal activity against Cydia pomonella (codling moth) assessed as mortality at 20 mg/kg diet topically measured after 10 days of continuous exposure (reference value: 3.3 +/- 3.3%); conditions: topical, 240 h
structure (smiles),measurement,setting,value
CC1=C(O)C(=O)C=C2C1=CC=C1[C@@]2(C)CC[C@@]2(C)[C@@H]3C[C@](C)(O)C(=O)C[C@]3(C)CC[C@]12C [20ALPHA-HYDROXYTINGENONE],LC50,[1],8.5 mg/mL
same,Activity,[2],1.4
same,Activity,[3],0
same,Activity,[4],90%
same,Activity,[5],100%
same,mortality at 6 mg/kg,[6],23.3%
same,Activity,[7],100%
same,Activity,[8],96.7%
same,mortality at 4 mg/kg,[9],6.7%
same,Activity,[10],0
same,mortality at 12 mg/kg,[11],53.3%
same,Activity,[12],100%
same,LC50,[13],13 mg/mL
same,Activity,[14],33.3%
same,mortality at 16 mg/kg,[15],60%
same,Activity,[16],100%
same,mortality at 18 mg/kg,[17],86.7%
same,Activity,[18],0.6
same,Activity,[19],6.7%
same,mortality at 8 mg/kg,[20],43.3%
same,Activity,[21],0
same,mortality at 2 mg/kg,[22],0%
same,Activity,[23],100%
same,Activity,[24],80%
same,Activity,[25],0.6
same,Activity,[26],0.1
same,Activity,[27],53.3%
same,mortality at 18 mg/kg,[28],93.3%
same,Activity,[29],3.3%
same,Activity,[30],100%
same,Activity,[31],0.1
same,Activity,[32],36.7%
same,Activity,[33],0
same,Activity,[34],0
same,Activity,[35],0.2
same,mortality at 20 mg/kg,[36],100%
